Each molecule was assayed against EGFR WT (Homo sapiens (Human), UniProt P00533) (assay: ErbB enzyme assay (CisBio HTRF-KinEASE-TK), EGFR WT). Settings: ATP at Km (25 μM), 1 h incubation.
Format: biochemical
Procedure, shortened: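 Tyrosine kinase HTRF, 1 h RT reaction → quench (Sa-XL665/TK-Ab-Cryptate) → 1 h RT → 655/620 ratio.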

EGFR WT, sequence (P00533 25-1210): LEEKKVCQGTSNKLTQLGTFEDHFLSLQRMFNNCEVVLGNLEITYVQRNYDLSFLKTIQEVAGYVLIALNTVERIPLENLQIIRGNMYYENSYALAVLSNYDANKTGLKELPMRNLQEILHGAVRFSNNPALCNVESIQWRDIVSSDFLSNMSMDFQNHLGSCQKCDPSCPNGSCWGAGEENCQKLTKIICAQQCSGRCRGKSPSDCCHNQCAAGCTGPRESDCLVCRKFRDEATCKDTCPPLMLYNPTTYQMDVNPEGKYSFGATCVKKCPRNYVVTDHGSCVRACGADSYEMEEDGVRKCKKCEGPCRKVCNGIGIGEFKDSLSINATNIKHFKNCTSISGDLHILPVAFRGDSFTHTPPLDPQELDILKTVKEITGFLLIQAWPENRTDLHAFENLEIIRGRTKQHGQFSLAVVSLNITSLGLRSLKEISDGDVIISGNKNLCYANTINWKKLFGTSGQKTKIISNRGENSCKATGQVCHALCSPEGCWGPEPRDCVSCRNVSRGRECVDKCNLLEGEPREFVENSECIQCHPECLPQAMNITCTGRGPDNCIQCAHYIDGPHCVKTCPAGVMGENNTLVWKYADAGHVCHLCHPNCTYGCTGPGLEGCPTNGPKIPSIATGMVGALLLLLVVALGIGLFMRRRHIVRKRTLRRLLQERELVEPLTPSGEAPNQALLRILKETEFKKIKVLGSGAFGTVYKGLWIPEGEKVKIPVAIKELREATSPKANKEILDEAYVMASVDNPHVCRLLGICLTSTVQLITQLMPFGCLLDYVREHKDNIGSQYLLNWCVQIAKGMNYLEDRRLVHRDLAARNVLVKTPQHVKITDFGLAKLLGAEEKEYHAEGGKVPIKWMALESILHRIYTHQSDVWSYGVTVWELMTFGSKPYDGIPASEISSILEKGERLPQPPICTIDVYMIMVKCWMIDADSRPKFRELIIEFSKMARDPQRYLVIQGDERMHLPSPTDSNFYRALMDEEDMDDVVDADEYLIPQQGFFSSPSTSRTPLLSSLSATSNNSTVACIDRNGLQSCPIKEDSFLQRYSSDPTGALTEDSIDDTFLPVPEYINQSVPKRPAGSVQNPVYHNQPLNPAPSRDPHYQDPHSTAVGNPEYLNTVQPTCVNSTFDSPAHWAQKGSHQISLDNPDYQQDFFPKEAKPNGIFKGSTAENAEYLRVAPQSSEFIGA

Compared with `C=CC(=O)N1CCN(c2ncc3ncnc(Nc4ccc(Oc5ccn6ncnc6c5)c(C)c4)c3c2F)CC1` [Compound 100, 1-(4-(4-((4-([1,2,4]triazolo[1,5-a]pyridin-7-yloxy)-3-methylphenyl)amino)-5-fluoropyrido[3,4-d]pyrimidin-6-yl)piperazin-1-yl)prop-2-en-1-one], `C=CC(=O)N1CCN(c2nc3c(Nc4ccc(Oc5ccc6c(c5)nnn6C)c(C)c4)ncnc3cc2F)CC1` [Compound 373, 1-(4-(7-fluoro-4-((3-methyl-4-((1-methyl-1H-benzo[d][1,2,3]triazol-5-yl)oxy)phenyl)amino)pyrido[3,2-d]pyrimidin-6-yl)piperazin-1-yl)prop-2-en-1-one] is lower in IC50: 0.5 to 1 µM for the first, 0.1 to 0.5 µM for the second.

Compared with `C=CC(=O)N[C@@H]1[C@@H]2C[C@H]1CN(c1ncc3ncnc(Nc4ccc(Oc5ccc6c(c5)nnn6C)c(C)c4)c3n1)C2` [Compound 208, N-((1R,5S,6s)-3-(8-((3-methyl-4-((1-methyl-1H-benzo[d][1,2,3]triazol-5-yl)oxy)phenyl)amino)pyrimido[5,4-d]pyrimidin-2-yl)-3-azabicyclo[3.1.1]heptan-6-yl)acrylamide], `C=CC(=O)N[C@]1(C)CCCN(c2ncc3ncnc(Nc4ccc(Oc5ccc6c(c5)nnn6C)c(C)c4)c3n2)C1` [Compound 200, (R)-N-(3-methyl-1-(8-((3-methyl-4-((1-methyl-1H-benzo[d][1,2,3]triazol-5-yl)oxy)phenyl)amino)pyrimido[5,4-d]pyrimidin-2-yl)piperidin-3-yl)acrylamide] is lower in IC50: at least 1 µM for the first, under 0.05 µM for the second.

`C=CC(=O)N1CCN(c2ncc3ncnc(Nc4ccc(Oc5ccc6c(c5)nnn6C)c(C)c4F)c3n2)CC12CC2` [Compound 8, 1-(7-(8-((2-fluoro-3-methyl-4-((1-methyl-1H-benzo[d][1,2,3]triazol-5-yl)oxy)phenyl)amino)pyrimido [5,4-d]pyrimidin-2-yl)-4,7-diazaspiro[2.5]octan-4-yl)prop-2-en-1-one] and `C=CC(=O)N1CCN(c2ncc3ncnc(Nc4ccc(Oc5ccc6c(c5)nnn6C)c(Cl)c4F)c3n2)CC1` [Compound 220, 1-(4-(8-((3-chloro-2-fluoro-4-((1-methyl-1H-benzo[d][1,2,3]triazol-5-yl)oxy)phenyl)amino)pyrimido[5,4-d]pyrimidin-2-yl)piperazin-1-yl)prop-2-en-1-one] cannot be ordered by IC50: under 0.05 µM for the first, under 0.05 µM for the second.

`C=CC(=O)N[C@@H]1CN(c2ncc3ncnc(Nc4ccc(Oc5ccc6c(c5)nnn6C)c(C)c4F)c3n2)CC[C@H]1C` [Compound 230, N-((3S,4R)-1-(8-((2-fluoro-3-methyl-4-((1-methyl-1H-benzo[d][1,2,3]triazol-5-yl)oxy)phenyl)amino)pyrimido[5,4-d]pyrimidin-2-yl)-4-methylpiperidin-3-yl)acrylamide] and `C=CC(=O)N[C@H]1CN(c2ccc3ncnc(Nc4ccc(Oc5ccc6c(c5)nnn6C)c(C)c4F)c3n2)CC[C@@H]1C` [Compound 350, N-((3R,4S)-1-(4-((2-fluoro-3-methyl-4-((1-methyl-1H-benzo[d][1,2,3]triazol-5-yl)oxy)phenyl)amino)pyrido[3,2-d]pyrimidin-6-yl)-4-methylpiperidin-3-yl)acrylamide] fall in the same range of IC50: 0.1 to 0.5 µM for the first, 0.1 to 0.5 µM for the second.

Compared with `[2H]C1([2H])N(C(=O)C=C)C([2H])([2H])C([2H])([2H])N(c2ncc3ncnc(Nc4ccc(Oc5ccc6c(c5)nnn6C)c(C)c4)c3n2)C1([2H])[2H]` [Compound 36, 1-(4-(8-((3-methyl-4-((1-methyl-1H-benzo[d][1,2,3]triazol-5-yl)oxy)phenyl)amino)pyrimido[5,4-d]pyrimidin-2-yl)piperazin-1-yl-2,2,3,3,5,5,6,6-d8)prop-2-en-1-one], `C=CC(=O)N1CCN(c2ncc3ncnc(Nc4ccc(Oc5ccc6c(c5)nnn6C)c(C)c4)c3n2)C[C@H]1CO` [Compound 24, (S)-1-(2-(hydroxymethyl)-4-(8-((3-methyl-4-((1-methyl-1H-benzo[d][1,2,3]triazol-5-yl)oxy)phenyl)amino)pyrimido[5,4-d]pyrimidin-2-yl)piperazin-1-yl)prop-2-en-1-one] is higher in IC50: under 0.05 µM for the first, 0.1 to 0.5 µM for the second.

Compared with `C=CC(=O)N1CC2CCC1CN2c1ncc2ncnc(Nc3ccc(Oc4ccc5c(c4)nnn5C)c(C)c3)c2n1` (stereo not shown) [Compound 62, 1-(5-(8-((3-methyl-4-((1-methyl-1H-benzo[d][1,2,3]triazol-5-yl)oxy)phenyl)amino)pyrimido[5,4-d]pyrimidin-2-yl)-2,5-diazabicyclo[2.2.2]octan-2-yl)prop-2-en-1-one], `C=CC(=O)N1CCN(c2ncc3ncnc(Nc4ccc(Oc5ccc6c(c5)nnn6C)c(C)c4)c3n2)C[C@H]1COC` [Compound 120, (S)-1-(2-(methoxymethyl)-4-(8-((3-methyl-4-((1-methyl-1H-benzo[d][1,2,3]triazol-5-yl)oxy)phenyl)amino)pyrimido[5,4-d]pyrimidin-2-y1)piperazin-1-yl)prop-2-en-1-one] is higher in IC50: under 0.05 µM for the first, 0.05 to 0.1 µM for the second. The first is the more potent here.

`C=CC(=O)N1CCN(c2ccc3ncnc(Nc4cc(C)c(Oc5ccc6c(c5)nnn6C)cc4OC(F)F)c3n2)CC1(C)C` [Compound 305, 1-(4-(4-((2-(difluoromethoxy)-5-methyl-4-((1-methyl-1H-benzo[d][1,2,3]triazol-5-yl)oxy)phenyl)amino)pyrido[3,2-d]pyrimidin-6-yl)-2,2-dimethylpiperazin-1-yl)prop-2-en-1-one] and `C=CC(=O)N1CCN(c2ccc3ncnc(Nc4cc(C)c(Oc5ccc6c(c5)nnn6C)cc4OC(F)F)c3n2)C[C@H]1C` [Compound 302, (R)-1-(4-(4-((2-(difluoromethoxy)-5-methyl-4-((1-methyl-1H-benzo[d][1,2,3]triazol-5-yl)oxy)phenyl)amino)pyrido[3,2-d]pyrimidin-6-yl)-2-methylpiperazin-1-yl)prop-2-en-1-one] fall in the same range of IC50: 0.1 to 0.5 µM for the first, 0.1 to 0.5 µM for the second.

Compared with `C=C(F)C(=O)N1CC[C@H](N(C)c2ccc3ncnc(Nc4ccc(Oc5ccc6c(c5)nnn6C)c(C)c4F)c3n2)C1` [Compound 365, (S)-2-fluoro-1-(3-((4-((2-fluoro-3-methyl-4-((1-methyl-1H-benzo[d][1,2,3]triazol-5-yl)oxy)phenyl)amino)pyrido[3,2-d]pyrimidin-6-yl)(methyl)amino)pyrrolidin-1-yl)prop-2-en-1-one], `C=CC(=O)N[C@@H]1C[C@@H](C)CN(c2ccc3ncnc(Nc4ccc(Oc5ccc6c(c5)nnn6C)c(C)c4F)c3n2)C1` (single isomer, unassigned) [Compound 338] is lower in IC50: at least 1 µM for the first, 0.1 to 0.5 µM for the second.

First: C=C(F)C(=O)N1CC=C(c2ccc3ncnc(Nc4ccc(Oc5ccc6c(c5)nnn6C)c(C)c4)c3n2)C1 [Compound 403, 2-fluoro-1-(3-(4-((3-methyl-4-((1-methyl-1H-benzo[d][1,2,3]triazol-5-yl)oxy)phenyl)amino)pyrido[3,2-d]pyrimidin-6-yl)-2,5-dihydro-1H-pyrrol-1-yl)prop-2-en-1-one]
Second: C=CC(=O)N1CC[C@H](N(C)c2ncc3ncnc(Nc4ccc(Oc5ccc6c(c5)nnn6C)c(C)c4)c3n2)C1 [Compound 131, (S)-1-(3-(methyl(8-((3-methyl-4-((1-methyl-1H-benzo[d][1,2,3]triazol-5-yl)oxy)phenyl)amino)pyrimido[5,4-d]pyrimidin-2-yl)amino)pyrrolidin-1-yl)prop-2-en-1-one]
The IC50 of the first is higher: 0.05 to 0.1 µM for the first, under 0.05 µM for the second. The second is the more potent here.

First: C=C(COC)C(=O)NC1(C)CCN(c2ncc3ncnc(Nc4ccc(Oc5ccc6c(c5)nnn6C)c(C)c4)c3n2)CC1 [Compound 215, 2-(methoxy-methyl)-N-(4-methyl-1-(8-((3-methyl-4-((1-methyl-1H-benzo[d][1,2,3]triazol-5-yl)oxy)phenyl)amino)pyrimido [5,4-d]pyrimidin-2-yl)piperidin-4-yl)acrylamide]
Second: C=CC(=O)N1CCN(c2ncc3ncnc(Nc4ccc(Oc5ccc6c(c5)nnn6C)c(C(F)(F)F)c4)c3n2)CC1 [Compound 43, 1-(4-(8-((4-((1-methyl-1H-benzo[d][1,2,3]triazol-5-yl)oxy)-3-(trifluoromethyl)phenyl)amino)pyrimido[5,4-d]pyrimidin-2-yl)piperazin-1-yl)prop-2-en-1-one]
The IC50 of the first is higher: at least 1 µM for the first, 0.1 to 0.5 µM for the second.

First: Cc1cc(Nc2ncnc3ccc(N4CC[C@@H](C)N(C(=O)/C=C/C(F)F)CC4)nc23)ccc1Oc1ccn2ncnc2c1 [Compound 367, (R,E)-1-(4-(4-((4-([1,2,4]triazolo[1,5-a]pyridin-7-yloxy)-3-methylphenyl)amino)pyrido[3,2-d]pyrimidin-6-yl)-7-methyl-1,4-diazepan-1-y1)-4,4-difluorobut-2-en-1-one]
Second: C=CC(=O)N1CCN(c2ccc3ncnc(Nc4cc(C)c(Oc5cc(F)c6c(c5)ncn6C)cc4OC)c3n2)CC1 [Compound 372, 1-(4-(4-((4-((7-fluoro-1-methyl-1H-benzo[d]imidazol-5-yl)oxy)-2-methoxy-5-methylphenyl)amino)pyrido[3,2-d]pyrimidin-6-yl)piperazin-1-yl)prop-2-en-1-one]
The IC50 of the first is higher: 0.5 to 1 µM for the first, 0.1 to 0.5 µM for the second.

`C=CC(=O)N1CC[C@@H](Oc2ncc3ncnc(Nc4ccc(Oc5cc(F)c6c(c5)ncn6C)c(C)c4)c3n2)C1` [Compound 385, (R)-1-(3-((8-((4-((7-fluoro-1-methyl-1H-benzo[d]imidazol-5-yl)oxy)-3-methylphenyl)amino)pyrimido[5,4-d]pyrimidin-2-yl)oxy)pyrrolidin-1-yl)prop-2-en-1-one] and `C=CC(=O)N1CCN(c2ncc3ncnc(Nc4cc(C)c(Oc5cc(F)c6c(c5)ncn6C)cc4OC)c3n2)C[C@H]1C` [Compound 41, (R)-1-(4-(8-((4-((7-fluoro-1-methyl-1H-benzo[d]imidazol-5-yl)oxy)-2-methoxy-5-methylphenyl)amino)pyrimido[5,4-d]pyrimidin-2-y1)-2-methylpiperazin-1-y1)prop-2-en-1-one] fall in the same range of IC50: 0.1 to 0.5 µM for the first, 0.1 to 0.5 µM for the second.

For `C=CC(=O)N1CCN(c2ncc3ncnc(Nc4ccc(Oc5cc6nnn(C)c6cc5F)c(C)c4)c3n2)CC1` [Compound 190, 1-(4-(8-((4-((6-fluoro-1-methyl-1H-benzo[d][1,2,3]triazol-5-yl)oxy)-3-methylphenyl)amino)pyrimido[5,4-d]pyrimidin-2-yl)piperazin-1-yl)prop-2-en-1-one], the IC50 was 0.1 to 0.5 µM.
